From ChEMBL document CHEMBL5325501, “Discovery of BWA-522, a First-in-Class and Orally Bioavailable PROTAC Degrader of the Androgen Receptor Targeting N-Terminal Domain for the Treatment of Prostate Cancer” (J Med Chem, 2023)
Activity calls are given as the source filed them. The rule behind the calls is not given here.

Experiments:
[1] = Tmax in ICR mouse at 2 mg/kg, iv measured by LC-MS/MS analysis; assay type: ADME, organism-based; conditions: in vivo
[2] = Cmax in ICR mouse at 2 mg/kg, iv measured by LC-MS/MS analysis; assay type: ADME, organism-based; design: dose 2 mg/kg, route iv; conditions: in vivo
[3] = AUC(0 to t) in ICR mouse at 2 mg/kg, iv measured by LC-MS/MS analysis; assay type: ADME, organism-based; design: dose 2 mg/kg, route iv; conditions: in vivo
[4] = Clearance in ICR mouse at 2 mg/kg, iv measured by LC-MS/MS analysis; assay type: ADME, organism-based; conditions: in vivo
[5] = AUC(0 to t) in ICR mouse at 10 mg/kg, po measured by LC-MS/MS analysis; assay type: ADME, organism-based; design: dose 10 mg/kg, route po; conditions: in vivo
[6] = Oral bioavailability in ICR mouse at 10 mg/kg measured by LC-MS/MS analysis; assay type: ADME, organism-based; conditions: in vivo
[7] = Cmax in beagle dog at 1 mg/kg, iv measured by LC-MS/MS analysis; assay type: ADME, organism-based, Canis lupus familiaris; design: dose 1 mg/kg, route iv; conditions: in vivo
[8] = AUC(0 to t) in beagle dog at 1 mg/kg, iv measured by LC-MS/MS analysis; assay type: ADME, organism-based, Canis lupus familiaris; design: dose 1 mg/kg, route iv; conditions: in vivo
[9] = Tmax in beagle dog at 5 mg/kg, po measured by LC-MS/MS analysis; assay type: ADME, organism-based, Canis lupus familiaris; conditions: in vivo
[10] = Cmax in beagle dog at 5 mg/kg, po measured by LC-MS/MS analysis; assay type: ADME, organism-based, Canis lupus familiaris; design: dose 5 mg/kg, route po; conditions: in vivo
[11] = Oral bioavailability in beagle dog at 5 mg/kg measured by LC-MS/MS analysis; assay type: ADME, organism-based, Canis lupus familiaris; conditions: in vivo
[12] = Metabolic stability in human liver microsomes assessed as intrinsic clearance at 2 uM preincubated for 10 mins in the presence of NADPH followed by compound addition and measured per mg protein after 60 mins by LC-MS/MS analysis; assay type: ADME, Microsome; conditions: read-out: CLH
[13] = Stability in mouse plasma assessed as parent compound remaining measured immediately by LC-MS/MS analysis; assay type: ADME, cell-free; conditions: read-out: Stability
[14] = Stability in mouse plasma assessed as parent compound remaining measured after 30 mins by LC-MS/MS analysis; assay type: ADME, cell-free; conditions: read-out: Stability
[15] = Stability in mouse plasma assessed as parent compound remaining measured after 60 mins by LC-MS/MS analysis; assay type: ADME, cell-free; conditions: read-out: Stability
[16] = Stability in human plasma assessed as parent compound remaining measured after 15 mins by LC-MS/MS analysis; assay type: ADME, cell-free; conditions: read-out: Stability
[17] = Stability in human plasma assessed as parent compound remaining measured after 30 mins by LC-MS/MS analysis; assay type: ADME, cell-free; conditions: read-out: Stability
[18] = Stability in human plasma assessed as parent compound remaining measured after 120 mins by LC-MS/MS analysis; assay type: ADME, cell-free; conditions: read-out: Stability
[19] = biological target: Voltage-gated inwardly rectifying potassium channel KCNH2 (Homo sapiens, UniProt Q12809); test: Inhibition of hERG in HEK293 cells by whole-cell manual patch clamp technique; assay type: toxicity, cell-based
Voltage-gated inwardly rectifying potassium channel KCNH2, sequence (Q12809 whole entry): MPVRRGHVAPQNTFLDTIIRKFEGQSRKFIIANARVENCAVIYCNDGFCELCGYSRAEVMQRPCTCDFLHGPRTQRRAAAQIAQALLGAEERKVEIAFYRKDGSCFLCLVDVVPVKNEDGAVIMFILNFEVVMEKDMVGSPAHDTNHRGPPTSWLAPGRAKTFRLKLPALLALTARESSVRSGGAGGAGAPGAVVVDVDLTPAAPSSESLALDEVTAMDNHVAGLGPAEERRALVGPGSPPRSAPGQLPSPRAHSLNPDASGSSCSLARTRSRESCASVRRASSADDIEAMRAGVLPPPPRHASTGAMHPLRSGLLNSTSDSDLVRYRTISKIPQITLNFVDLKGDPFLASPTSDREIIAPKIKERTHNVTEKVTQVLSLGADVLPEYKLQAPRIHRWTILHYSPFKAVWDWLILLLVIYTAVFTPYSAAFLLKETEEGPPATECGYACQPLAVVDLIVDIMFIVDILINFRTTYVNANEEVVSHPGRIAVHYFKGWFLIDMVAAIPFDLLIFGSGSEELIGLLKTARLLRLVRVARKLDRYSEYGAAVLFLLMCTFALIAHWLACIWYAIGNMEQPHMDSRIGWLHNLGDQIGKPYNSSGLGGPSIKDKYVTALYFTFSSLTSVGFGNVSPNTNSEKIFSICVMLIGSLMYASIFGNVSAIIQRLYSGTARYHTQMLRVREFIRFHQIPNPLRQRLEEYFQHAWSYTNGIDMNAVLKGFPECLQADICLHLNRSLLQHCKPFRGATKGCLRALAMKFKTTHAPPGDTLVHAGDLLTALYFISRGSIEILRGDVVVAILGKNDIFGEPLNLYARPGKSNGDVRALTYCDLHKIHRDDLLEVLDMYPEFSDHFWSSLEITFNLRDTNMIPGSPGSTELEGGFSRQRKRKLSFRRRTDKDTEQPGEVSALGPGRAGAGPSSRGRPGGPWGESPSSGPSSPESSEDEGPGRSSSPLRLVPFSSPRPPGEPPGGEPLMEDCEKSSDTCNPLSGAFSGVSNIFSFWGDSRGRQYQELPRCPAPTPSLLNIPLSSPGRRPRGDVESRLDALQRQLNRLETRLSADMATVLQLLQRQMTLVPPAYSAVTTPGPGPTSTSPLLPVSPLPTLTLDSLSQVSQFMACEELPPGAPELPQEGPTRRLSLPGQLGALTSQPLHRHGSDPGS

LNCaP [20] = test: Antiproliferative activity against human LNCaP cells assessed as reduction in cell viability incubated for 6 days by CCK-8 assay; assay type: functional, cell-based; conditions: 144 h
CWR22R = test: Antiproliferative activity against AR-dependent human 22Rv1 cells assessed as reduction in cell viability at 3 to 10 uM incubated for 6 days by CCK-8 assay; assay type: functional, cell-based; conditions: dose 3-10 µM, time 6.0 day
PC-3 = test: Antiproliferative activity against AR-independent human PC-3 cells assessed as reduction in cell viability at 10 uM incubated for 6 days by CCK-8 assay; assay type: functional, cell-based; conditions: time 6.0 day
RWPE-1 = test: Cytotoxicity against human RWPE-1 cells assessed as reduction in cell viability incubated for 6 days by CCK8 assay; assay type: toxicity, cell-based; conditions: rwpe-1, 144 h, time 6 day
LNCaP [21] = test: Inhibition of colony formation in human LNCaP cells incubated for 2 weeks by crystal violet staining based analysis; assay type: functional, cell-based; conditions: dose 1-10 µM
LNCaP [22] = test: Downregulation of TMPRSS2 protein level in human LNCaP cells incubated for 48 hrs by Western blot analysis; assay type: functional, cell-based; conditions: dose 1-10 µM
VCaP [23] = test: Downregulation of FKBP51 protein level in human VCaP cells incubated for 48 hrs by Western blot analysis; assay type: functional, cell-based; conditions: dose 1-10 µM
VCaP [24] = test: Downregulation of PSA protein level in human VCaP cells incubated for 48 hrs by Western blot analysis; assay type: functional, cell-based; conditions: dose 1-10 µM
[25] = Downregulation of TMPRSS2 protein level in human LNCaP cells at 10 uM incubated for 48 hrs by Western blot analysis relative to control; assay type: functional
[26] = Downregulation of FKBP51 protein level in human LNCaP cells at 10 uM incubated for 48 hrs by Western blot analysis relative to control; assay type: functional
[27] = Downregulation of FKBP51 protein level in human VCaP cells at 10 uM incubated for 48 hrs by Western blot analysis relative to control; assay type: functional
LNCaP [28] = test: Induction of apoptosis in human LNCaP cells assessed as PARP-1 cleavage at 5 to 10 uM incubated for 48 hrs by Western blot analysis; assay type: functional, cell-based; conditions: dose 5-10 µM
LNCaP [29] = test: Induction of apoptosis in human LNCaP cells assessed as caspase-3 cleavage at 5 to 10 uM incubated for 48 hrs by Western blot analysis; assay type: functional, cell-based; conditions: dose 5-10 µM
VCaP [30] = test: Induction of apoptosis in human VCaP cells assessed as PARP-1 cleavage at 5 to 10 uM incubated for 48 hrs by Western blot analysis; assay type: functional, cell-based; conditions: dose 5-10 µM
LNCaP [31] = test: Antitumor activity against human LNCaP cells xenografted in NOD SCID mouse assessed as reduction in tumor weight at 20 to 60 mg/kg, po administered daily for 4 weeks; assay type: functional, organism-based; conditions: dose 20-60 mg/kg
LNCaP [32] = test: Antitumor activity against human LNCaP cells xenografted in NOD SCID mouse assessed as tumor growth inhibition at 60 mg/kg, po administered daily for 4 weeks relative to control; assay type: functional; conditions: 672 h, read-out: TGI
[33] = Toxicity in ICR mouse assessed as body weight loss at 20 to 60 mg/kg, po administered daily for 14 days; assay type: organism-based; conditions: in vivo, 336 h, dose 20-60 mg/kg, time 14 day
[34] = Toxicity in ICR mouse assessed as lung damage at 20 to 60 mg/kg, po administered daily for 14 days; assay type: organism-based; conditions: in vivo, 336 h, dose 20-60 mg/kg, time 14 day

Tmax [1]: 6 min
Cmax [2]: 782 ng/mL
AUC(0-t) [3]: 3020 ng·h/mL
clearance [4]: 9.9 mL/min/kg
AUC(0-t) [5]: 5950 ng·h/mL
bioavailability [6]: 40.5%
Cmax [7]: 150 ng/mL
AUCt [8]: 919 ng·h/mL
Tmax [9]: 2.8 h
Cmax [10]: 97.3 ng/mL
F [11]: 69.3%
microsomal CLint at 2 µM [12]: 7.4 µL/min/mg
remaining at 0 min [13]: 100%
remaining at 0.5 h [14]: 90.3%
remaining at 1 h [15]: 90.8%
remaining at 0.25 h [16]: 92.2%
remaining at 0.5 h [17]: 92.1%
remaining at 2 h [18]: 87.3%
IC50 (LNCaP [20]): 1070 nM
Structure (SMILES): CC(C)(c1ccc(OCC2CCN(CC3CCN(c4ccc5c(c4)C(=O)N(C4CCC(=O)NC4=O)C5=O)CC3)CC2)cc1)c1ccc(OC[C@H](O)CCl)cc1 (some centres not stated)
IC50 [19]: > 10000 nM
Activity (CWR22R): Active
Activity (PC-3): inactive
Activity (RWPE-1): Non-Toxic
inhibition (LNCaP [21]): Dose-Dependent Effect
Activity (LNCaP [22]): Dose-Dependent Effect
Activity (VCaP [23]): Dose-Dependent Effect
Activity (VCaP [24]): Dose-Dependent Effect
Activity [25]: ~45%
Activity [26]: ~25%
Activity [27]: ~25%
Activity (LNCaP [28]): Active
Activity (LNCaP [29]): Active
Activity (VCaP [30]): Active
Activity (LNCaP [31]): Active
inhibition in vivo at 60 mg/kg (LNCaP [32]): 76%
Activity [33]: Non-Toxic
Activity [34]: Non-Toxic
